System: Spleen B lymphocyte cells
Assay: In vitro B lymphocyte proliferation induced by anti-IgM
Assay type: cell-based, BALB/c mice
Description: • 1) Chemical products and antibodies. A chemical bank of 3000 molecules (a varied subset) was acquired from ChemBridge, Inc. (San Diego, Calif.). Stocks of solutions of small molecules were prepared at a rate of 10 mM in DMSO (dimethylsulphoxide), except for C-13 (methyl 2-{5-[(3-benzyl-4-oxo-2-thioxo-1,3-thiazolidin-5-ylidene)methyl]-2-furyl}benzoate, ChemBridge ID No. 6197026) prepared in DMF (dimethylformamide). Unless specified otherwise, all the reagents were supplied by Sigma. Dinitrophenyl (DNP) hapten was acquired from Calbiochem. Sepharose GammaBind G and all the secondary antibodies were supplied by GE Health Amersham Biosciences. […] The binding of G4G11 with Syk was assessed by adding the 9E10 monoclonal antibody conjugated with HRP detecting the amino acid sequence EQKLISEEDLN of human c-myc protein located at the C-terminal end of the scFv fragment. To generate Syk mutants, targeted mutagenesis was used on GST:Syk 6-242 protein and the binding of G4G11 with the mutants was assessed in the presence of 5 μM of C-13. • 3) Cells, culture conditions and functional tests. […] The level of β-hexosaminidase released was measured 10 min later and the TNF-α titration was performed by means of a cytotoxicity test on L929 cells as described previously^10, 3 hours after stimulation. […]

COC(=O)c1ccccc1-c1ccc(/C=C2/SC(=S)N(Cc3ccccc3)C2=O)o1 [Molecule C-13, methyl 2-{5-[(3-benzyl-4-oxo-2-thioxo-1,3-thiazolidin-5-ylidene)methyl]-2-furyl}benzoate]
BCR-dependent B lymphocyte in vitro proliferation: inhibited in a dose-dependent fashion
